Converted amounts (≈) assume the structure as drawn. The source made the active and inactive calls. No cut-off for these calls is given here.
Columns and labels:
[1] = Destabilization of dimyristoyl phosphatidylethanolamine membrane; type: physicochemical
Staphylococcus aureus [2] = assay: Antimicrobial activity against Staphylococcus aureus; type: functional
[3] = Induction of dimyristoyl phosphatidylglycerol membrane lysis assessed as calcein leakage at 1 mM by spectrofluorometric analysis relative to control; type: physicochemical; conditions: 1000 µM
Escherichia coli [4] = assay: Antimicrobial activity against Escherichia coli; type: functional
[5] = Induction of dimyristoyl phosphatidylglycerol membrane lysis assessed as calcein leakage by spectrofluorometric analysis; type: physicochemical
[6] = Induction of dimyristoyl phosphatidylglycerol membrane lysis assessed as calcein leakage at 250 uM to 1 mM by spectrofluorometric analysis; type: physicochemical
[7] = Induction of dimyristoyl phosphatidylethanolamine membrane lysis assessed as calcein leakage at 1 mM by spectrofluorometric analysis; type: physicochemical; conditions: 1000 µM
[8] = Induction of dimyristoyl phosphatidylethanolamine membrane lysis assessed as calcein leakage at 250 to 500 uM by spectrofluorometric analysis; type: physicochemical
Escherichia coli [9] = assay: Antimicrobial activity against Escherichia coli up to 2 mM; type: functional, organism-based
Staphylococcus aureus [10] = assay: Antimicrobial activity against Staphylococcus aureus up to 2 mM; type: functional, organism-based
[11] = Destabilization of dimyristoyl phosphatidylglycerol membrane; type: physicochemical

Activity [1]	MIC (Staphylococcus aureus [2]) [µM]	Activity [3] [%]	MIC (Escherichia coli [4]) [µM]	Activity [5]	Activity [6]	Activity [7]	Activity [8]	Activity [11]	Compound	Activity (Escherichia coli [9])	Activity (Staphylococcus aureus [10])
Active	1000 (≈ 811 µg/mL)	61	1000 (≈ 811 µg/mL)	Dose-dependent effect	Active	Active	Not Active		CC(C)c1ccccc1N(C)C(=O)N(C)c1cccc(N(C)C(=O)N(C)c2cccc(N(C)C(=O)N(C)c3cccc(N(C)C(=O)N(C)c4ccccc4C(C)C)c3)c2)c1		
Active	1000 (≈ 1300 µg/mL)	69	1000 (≈ 1300 µg/mL)	Dose-dependent effect	Active	Active	Not Active		CC(C)c1ccccc1N(C)C(=O)N(C)c1cccc(N(C)C(=O)N(C)c2cccc(N(C)C(=O)N(C)c3cccc(N(C)C(=O)N(C)c4cccc(N(C)C(=O)N(C)c5cccc(N(C)C(=O)N(C)c6cccc(N(C)C(=O)N(C)c7ccccc7C(C)C)c6)c5)c4)c3)c2)c1		
Not Active				Dose-dependent effect	Active	Active	Not Active	Active	CC(C)c1ccccc1N(C)C(=O)N(C)c1ccccc1C(C)C	inactive	inactive

Source: ChEMBL document CHEMBL2375328, “Synthetic oligoureas of metaphenylenediamine mimic host defence peptides in their antimicrobial behaviour” (Bioorg Med Chem Lett, 2013)
